One series deals with p110α/p85 (Homo sapiens, UniProt P42336). The experiment in a line: Inhibition of isolated enzyme (lipid kinase assay, [γ33P]ATP, TLC). The class given is biochemical. The note with it: recombinant enzyme, 100 μM ATP, 1 hr room temperature, average of two experiments. The procedure, abridged:
(§1)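 Each recombinant p110/p85 enzyme (0.1 μg) was incubated with 10 μg L-α-phosphatidylinositol in Tris-HCl pH 7.4 buffer with NaCl and EDTA, 1% final DMSO, and was started with ATP mix (100 μM ATP, 5 mM MgCl2, [γ33P]ATP). Reactions ran 1 h at room temperature, and the lipids were extracted, TLC-separated and phosphorimaged. IC50 came from nine concentrations and is the mean of two experiments.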

A further series has as its target p110β/p85 (Homo sapiens, UniProt P42338). Described as above. The class given is biochemical. The note with it: recombinant enzyme, 100 μM ATP, 1 hr room temperature, average of two experiments. The procedure, abridged:
as §1

The next series deals with p110δ/p85 (Homo sapiens, UniProt O00329). The series is described as above. The class given is biochemical. The note with it: recombinant enzyme, 100 μM ATP, 1 hr room temperature, average of two experiments. An outline of the steps: as §1
Chain of p110δ/p85 (O00329 whole entry, species assumed): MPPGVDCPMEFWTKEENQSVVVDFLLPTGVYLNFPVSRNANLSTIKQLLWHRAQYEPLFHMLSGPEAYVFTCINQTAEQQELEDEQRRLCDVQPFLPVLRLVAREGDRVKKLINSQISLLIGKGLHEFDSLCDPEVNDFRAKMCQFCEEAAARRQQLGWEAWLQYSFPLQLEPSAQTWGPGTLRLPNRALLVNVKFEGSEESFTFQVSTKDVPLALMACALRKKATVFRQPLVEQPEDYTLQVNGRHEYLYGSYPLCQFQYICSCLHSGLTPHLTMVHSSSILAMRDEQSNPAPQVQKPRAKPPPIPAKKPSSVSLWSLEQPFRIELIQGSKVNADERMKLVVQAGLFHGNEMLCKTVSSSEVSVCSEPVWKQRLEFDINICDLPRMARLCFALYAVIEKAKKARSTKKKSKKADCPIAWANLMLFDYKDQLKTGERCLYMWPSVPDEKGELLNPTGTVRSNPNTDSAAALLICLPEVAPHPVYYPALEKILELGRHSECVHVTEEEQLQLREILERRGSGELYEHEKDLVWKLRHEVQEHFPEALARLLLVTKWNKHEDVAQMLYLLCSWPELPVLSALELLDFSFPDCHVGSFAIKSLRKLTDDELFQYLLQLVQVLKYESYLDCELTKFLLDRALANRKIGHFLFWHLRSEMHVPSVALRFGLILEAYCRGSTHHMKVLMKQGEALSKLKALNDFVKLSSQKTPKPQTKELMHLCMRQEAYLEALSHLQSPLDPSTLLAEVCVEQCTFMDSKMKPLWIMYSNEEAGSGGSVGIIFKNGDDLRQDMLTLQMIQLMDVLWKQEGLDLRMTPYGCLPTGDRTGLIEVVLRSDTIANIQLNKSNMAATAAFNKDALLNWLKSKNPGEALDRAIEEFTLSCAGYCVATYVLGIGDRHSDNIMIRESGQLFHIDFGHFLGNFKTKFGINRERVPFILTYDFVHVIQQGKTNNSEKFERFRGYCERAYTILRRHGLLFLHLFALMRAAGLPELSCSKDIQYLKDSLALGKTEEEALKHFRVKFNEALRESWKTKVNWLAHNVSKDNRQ
Chain of p110δ/p85 (P27986 whole entry partner, species assumed): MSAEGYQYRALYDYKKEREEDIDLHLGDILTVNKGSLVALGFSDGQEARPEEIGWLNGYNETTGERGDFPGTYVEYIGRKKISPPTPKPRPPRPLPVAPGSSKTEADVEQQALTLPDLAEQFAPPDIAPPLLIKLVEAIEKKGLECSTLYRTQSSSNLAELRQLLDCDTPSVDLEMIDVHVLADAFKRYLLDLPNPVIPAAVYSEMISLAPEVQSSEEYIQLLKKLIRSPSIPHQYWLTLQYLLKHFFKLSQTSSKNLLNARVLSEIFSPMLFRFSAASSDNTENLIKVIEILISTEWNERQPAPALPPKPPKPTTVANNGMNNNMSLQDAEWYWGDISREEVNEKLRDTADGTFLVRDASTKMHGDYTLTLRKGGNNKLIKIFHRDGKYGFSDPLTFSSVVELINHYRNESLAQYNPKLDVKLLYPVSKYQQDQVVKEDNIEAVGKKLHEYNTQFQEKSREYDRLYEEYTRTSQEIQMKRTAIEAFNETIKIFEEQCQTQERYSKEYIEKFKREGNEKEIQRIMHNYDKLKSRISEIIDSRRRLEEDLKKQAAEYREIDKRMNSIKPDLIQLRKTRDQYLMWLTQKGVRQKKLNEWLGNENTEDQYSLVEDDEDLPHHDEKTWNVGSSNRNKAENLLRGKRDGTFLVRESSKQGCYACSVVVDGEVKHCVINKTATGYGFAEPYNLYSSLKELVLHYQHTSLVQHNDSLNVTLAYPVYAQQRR
Another series relates to NZB5. The series can be described thus: Cellular growth inhibition (3H-thymidine incorporation). Type of series: cell-based. The note with it: Homo sapiens, five days incubation, 3H-thymidine over the last 6 hrs, read-out: Cell IC50* NZB5. As to the method: (§2) The compounds were evaluated against two early passage human cell lines NZB5 and NZOV9 (Marshall et al., Oncol. Res. 2004, 14, 297). The cells were grown in ITS medium (α-modified minimal essential medium supplemented insulin, transferrin, selenite, and 5% fetal bovine serum) and grown on 96-well tissue culture plates under an atmosphere of 5% O2, 5% CO2, and 90% N2. Individual wells contained 500-1,000 cells (depending on the growth rate) in a volume of 150 μL. Compounds were added at 10-fold concentration steps to a maximum of 20 μM and plates were incubated for five days, with ^3H-thymidine being added over the last 6 hrs. Cells were harvested and incorporated radioactivity measured. Duplicate samples were analyzed for each compound dose with multiple control samples. Data were fitted by a least-squares method to an exponential of the form y=y0+ae^−bx, where y is the radioactivity (corrected for background and normalized to 100% of the control), x is the […], and y0, a, and b are variables, and the IC50 value defined as the compound concentration reducing ^3H-thymidine levels by 50%.

The subject of another series is NZOV9. Described as above. Type of series: cell-based. The note with it: Homo sapiens, five days incubation, 3H-thymidine over the last 6 hrs, read-out: Cell IC50* NZOV9. As to the method: as §2
A further series concerns PI3K. The note with it: background, literature; cited from earlier work.
A further series has as its system human tumor xenografts. The settings on record: mice with human tumor xenografts; cited from earlier work.

SMILES strings stand for the structures.

Broadly, the IC50 is the concentration needed to halve the response being measured. As a reminder, the melting point is the temperature of the solid-liquid transition.

Chain of p110β/p85 (P42338 whole entry, species assumed): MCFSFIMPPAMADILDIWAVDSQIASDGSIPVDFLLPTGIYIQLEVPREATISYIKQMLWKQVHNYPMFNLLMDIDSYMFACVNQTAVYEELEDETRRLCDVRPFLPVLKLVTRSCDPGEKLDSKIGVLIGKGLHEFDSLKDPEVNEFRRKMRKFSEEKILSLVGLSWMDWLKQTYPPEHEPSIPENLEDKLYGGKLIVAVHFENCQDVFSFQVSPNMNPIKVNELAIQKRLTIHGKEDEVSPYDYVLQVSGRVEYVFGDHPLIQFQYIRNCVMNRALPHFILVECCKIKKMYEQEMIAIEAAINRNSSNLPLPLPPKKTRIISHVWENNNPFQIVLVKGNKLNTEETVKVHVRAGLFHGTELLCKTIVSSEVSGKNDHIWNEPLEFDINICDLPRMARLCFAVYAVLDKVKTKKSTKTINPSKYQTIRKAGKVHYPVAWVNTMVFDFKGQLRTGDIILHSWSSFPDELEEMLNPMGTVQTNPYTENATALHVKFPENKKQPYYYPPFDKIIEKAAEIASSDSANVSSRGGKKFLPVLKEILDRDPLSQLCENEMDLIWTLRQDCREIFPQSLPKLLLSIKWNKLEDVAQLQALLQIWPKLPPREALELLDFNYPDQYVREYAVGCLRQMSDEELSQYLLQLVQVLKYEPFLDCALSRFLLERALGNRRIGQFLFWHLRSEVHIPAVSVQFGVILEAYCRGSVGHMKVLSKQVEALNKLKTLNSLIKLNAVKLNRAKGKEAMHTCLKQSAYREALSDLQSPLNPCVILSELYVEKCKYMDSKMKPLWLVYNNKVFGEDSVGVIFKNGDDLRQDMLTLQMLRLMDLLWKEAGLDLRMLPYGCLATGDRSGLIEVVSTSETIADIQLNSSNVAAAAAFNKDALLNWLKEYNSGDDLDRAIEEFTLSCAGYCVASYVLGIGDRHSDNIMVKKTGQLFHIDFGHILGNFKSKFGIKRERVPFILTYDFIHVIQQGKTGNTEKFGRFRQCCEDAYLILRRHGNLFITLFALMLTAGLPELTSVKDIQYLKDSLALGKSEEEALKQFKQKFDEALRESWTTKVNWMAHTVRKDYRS
Chain of p110β/p85 (P27986 whole entry partner, species assumed): as the sequence (P27986 whole entry partner, species assumed) above
Chain of p110α/p85 (P42336 whole entry): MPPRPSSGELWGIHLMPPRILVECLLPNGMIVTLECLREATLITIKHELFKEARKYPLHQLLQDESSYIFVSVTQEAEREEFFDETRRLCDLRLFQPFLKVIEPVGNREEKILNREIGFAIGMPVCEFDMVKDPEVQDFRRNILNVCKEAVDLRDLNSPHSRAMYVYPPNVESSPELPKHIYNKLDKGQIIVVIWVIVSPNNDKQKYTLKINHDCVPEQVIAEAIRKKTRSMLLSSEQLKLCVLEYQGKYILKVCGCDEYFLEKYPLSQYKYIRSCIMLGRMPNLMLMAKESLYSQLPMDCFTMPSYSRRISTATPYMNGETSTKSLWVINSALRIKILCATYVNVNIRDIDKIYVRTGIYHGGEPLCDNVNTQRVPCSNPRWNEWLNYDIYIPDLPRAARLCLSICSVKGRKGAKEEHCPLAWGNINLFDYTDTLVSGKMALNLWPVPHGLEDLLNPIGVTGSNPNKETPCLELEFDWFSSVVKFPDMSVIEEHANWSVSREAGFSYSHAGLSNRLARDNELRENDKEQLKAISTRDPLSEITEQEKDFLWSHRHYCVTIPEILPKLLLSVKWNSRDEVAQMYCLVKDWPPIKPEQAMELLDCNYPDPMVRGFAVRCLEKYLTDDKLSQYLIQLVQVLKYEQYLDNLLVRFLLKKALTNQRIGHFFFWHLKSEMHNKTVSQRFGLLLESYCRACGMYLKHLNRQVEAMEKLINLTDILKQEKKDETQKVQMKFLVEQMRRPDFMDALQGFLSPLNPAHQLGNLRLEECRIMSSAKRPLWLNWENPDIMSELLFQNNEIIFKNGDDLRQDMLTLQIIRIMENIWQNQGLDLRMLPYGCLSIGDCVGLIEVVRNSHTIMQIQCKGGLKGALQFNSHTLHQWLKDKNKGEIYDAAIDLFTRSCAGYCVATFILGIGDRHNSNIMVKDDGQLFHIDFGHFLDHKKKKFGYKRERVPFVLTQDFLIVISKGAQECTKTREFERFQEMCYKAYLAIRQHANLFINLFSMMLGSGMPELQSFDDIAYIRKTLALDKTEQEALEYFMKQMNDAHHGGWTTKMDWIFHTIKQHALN
Chain of p110α/p85 (P27986 whole entry partner): as the sequence (P27986 whole entry partner, species assumed) above

`COc1ccc(Nc2nc(N3CCOCC3)nc(-n3c(C(F)F)nc4c(OC)cccc43)n2)cn1` [Example 28, 4-[2-(difluoromethyl)-4-methoxy-1H-benzimidazol-1-yl]-N-(6-methoxy-3-pyridinyl)-6-(4-morpholinyl)-1,3,5-triazin-2-amine] came in with a melting point of 201 to 202 °C. Besides, on p110α/p85, the IC50 is less than 100 nM. In addition, on p110β/p85, the IC50 is less than 100 nM. The IC50 on p110δ/p85 was less than 100 nM. Besides, the IC50 in the series with NZB5 is less than 100 nM. Moreover, the IC50 in the series on NZOV9 was less than 100 nM.

In the case of `COc1cccc2c1nc(C(F)F)n2-c1nc(Nc2ccc(F)nc2)nc(N2CCOCC2)n1` [Example 29, 4-[2-(difluoromethyl)-4-methoxy-1H-benzimidazol-1-yl]-N-(6-fluoro-3-pyridinyl)-6-(4-morpholinyl)-1,3,5-triazin-2-amine], the melting point is 261 to 263 °C. Moreover, the IC50 at p110α/p85 is less than 100 nM. Moreover, on p110β/p85, the IC50 was in the range of 100 to 1000 nM. The IC50 at p110δ/p85 was less than 100 nM. For the same compound, in the series on NZB5, the IC50 is less than 100 nM. Further, the IC50 in the series with NZOV9 is less than 100 nM.

In turn, `COc1cccc2c1nc(C(F)F)n2-c1nc(Nc2ccc(Cl)nc2)nc(N2CCOCC2)n1` [Example 30, N-(6-chloro-3-pyridinyl)-4-[2-(difluoromethyl)-4-methoxy-1H-benzimidazol-1-yl]-6-(4-morpholinyl)-1,3,5-triazin-2-amine] yielded a melting point of 260 to 262 °C. Also, the IC50 on p110α/p85 was less than 100 nM. Besides, the IC50 at p110β/p85 fell in the range of 100 to 1000 nM. At p110δ/p85, the IC50 is less than 100 nM. The half-maximal inhibitory concentration (IC50) in the series with NZB5 was less than 100 nM. In the series on NZOV9, the IC50 was less than 100 nM.

`COc1cccc2c1nc(C(F)F)n2-c1nc(Nc2cncnc2)nc(N2CCOCC2)n1` [Example 31, 4-[2-(difluoromethyl)-4-methoxy-1H-benzimidazol-1-yl]-6-(4-morpholinyl)-N-(5-pyrimidinyl)-1,3,5-triazin-2-amine]: the melting point fell in the range of 293 to 295 °C. Also, the IC50 at p110α/p85 was less than 100 nM. The IC50 at p110β/p85 is 100 to 1000 nM. In addition, the IC50 on p110δ/p85 is less than 100 nM. The IC50 with NZB5 is less than 100 nM. The IC50 in the series with NZOV9 is less than 100 nM.

`COc1cc(Nc2nc(N3CCOCC3)nc(-n3c(C(F)F)nc4c(OC)cccc43)n2)ncn1` [Example 32, 4-(2-(difluoromethyl)-4-methoxy-1H-benzimidazol-1-yl)-N-(6-methoxypyrimidin-4-yl)-6-morpholino-1,3,5-triazin-2-amine] displayed a melting point of 256 to 259 °C. Further, the half-maximal inhibitory concentration (IC50) at p110α/p85 was less than 100 nM. For the same compound, at p110β/p85, the IC50 was 100 to 1000 nM. Further, the IC50 on p110δ/p85 was less than 100 nM. Moreover, the IC50 with NZB5 is greater than 10000 nM. In addition, in the series on NZOV9, the IC50 was less than 100 nM.

Compound `COc1cccc2c1nc(C(F)F)n2-c1nc(Nc2cccnn2)nc(N2CCOCC2)n1` [Example 33, 4-[2-(difluoromethyl)-4-methoxy-1H-benzimidazol-1-yl]-6-(4-morpholinyl)-N-(3-pyridazinyl)-1,3,5-triazin-2-amine] returned a melting point of 261 to 263 °C. For the same compound, on p110α/p85, the IC50 was less than 100 nM. At p110β/p85, the IC50 lay in the range of 100 to 1000 nM. Moreover, the IC50 at p110δ/p85 is less than 100 nM. The IC50 in the series with NZB5 was in the range of 100 to 1000 nM. Besides, in the series on NZOV9, the IC50 was less than 100 nM.

`COc1ccc(Nc2nc(N3CCOCC3)nc(-n3c(C(F)F)nc4c(OC)cccc43)n2)nn1` [Example 34, 4-[2-(difluoromethyl)-4-methoxy-1H-benzimidazol-1-yl]-N-(6-methoxy-3-pyridazinyl)-6-(4-morpholinyl)-1,3,5-triazin-2-amine] gave a melting point of 256 to 259 °C. For the same compound, the IC50 at p110α/p85 was less than 100 nM. The IC50 at p110β/p85 was in the range of 100 to 1000 nM. Also, the IC50 at p110δ/p85 was less than 100 nM. In addition, in the series on NZB5, the IC50 was 100 to 1000 nM. In addition, the IC50 in the series on NZOV9 lay within 100 to 1000 nM.

With `COc1cccc2c1nc(C(F)F)n2-c1nc(Nc2ccncn2)nc(N2CCOCC2)n1` [Example 36, 4-[2-(difluoromethyl)-4-methoxy-1H-benzimidazol-1-yl]-6-(4-morpholinyl)-N-(4-pyrimidinyl)-1,3,5-triazin-2-amine], the melting point lay in the range of 234 to 236 °C. For the same compound, the IC50 at p110α/p85 is less than 100 nM. The IC50 on p110β/p85 lay within 100 to 1000 nM. Also, at p110δ/p85, the IC50 is less than 100 nM. Besides, the IC50 with NZB5 was less than 100 nM. Besides, the IC50 with NZOV9 was less than 100 nM.

Compound `COc1cccc2c1nc(C(F)F)n2-c1nc(Nc2ccc(N)nc2)nc(N2CCOCC2)n1` [Example 37, N^5-[4-[2-(difluoromethyl)-4-methoxy-1H-benzimidazol-1-yl]-6-(4-morpholinyl)-1,3,5-triazin-2-yl]-2,5-pyridinediamine] had a melting point of 267 to 270 °C. In addition, the IC50 on p110α/p85 is less than 100 nM. Also, at p110β/p85, the IC50 was 100 to 1000 nM. The IC50 at p110δ/p85 was less than 100 nM. Also, the IC50 in the series with NZB5 was less than 100 nM. The IC50 with NZOV9 is less than 100 nM.

The compound `CNc1ccc(Nc2nc(N3CCOCC3)nc(-n3c(C(F)F)nc4c(OC)cccc43)n2)cn1` [Example 38, N^5-[4-[2-(difluoromethyl)-4-methoxy-1H-benzimidazol-1-yl]-6-(4-morpholinyl)-1,3,5-triazin-2-yl]-N^2-methyl-2,5-pyridinediamine] yielded a melting point of 218 to 221 °C. Moreover, the IC50 on p110α/p85 was less than 100 nM. For the same compound, the IC50 at p110β/p85 lay in the range of 100 to 1000 nM. Further, the IC50 at p110δ/p85 was less than 100 nM. Also, the IC50 with NZB5 is less than 100 nM. Besides, the IC50 in the series on NZOV9 is less than 100 nM.

The compound `COc1cccc2c1nc(C(F)F)n2-c1nc(Nc2ccc(N(C)C)nc2)nc(N2CCOCC2)n1` [Example 39, N^5-[4-[2-(difluoromethyl)-4-methoxy-1H-benzimidazol-1-yl]-6-(4-morpholinyl)-1,3,5-triazin-2-yl]-N^2,N^2-dimethyl-2,5-pyridinediamine] had a melting point of 136 to 137 °C. Further, on p110α/p85, the IC50 was less than 100 nM. Besides, the IC50 on p110β/p85 fell in the range of 100 to 1000 nM. The IC50 at p110δ/p85 is less than 100 nM. Further, the IC50 with NZB5 was less than 100 nM. For the same compound, the IC50 in the series with NZOV9 is less than 100 nM.

`FC(F)c1nc2ccccc2n1-c1nc(-c2cccnc2)nc(N2CCOCC2)n1` [Example 47, 2-(difluoromethyl)-1-[4-(4-morpholinyl)-6-(3-pyridinyl)-1,3,5-triazin-2-yl]-1H-benzimidazole] gave a melting point of 199 to 201 °C. Also, the IC50 on p110α/p85 is less than 100 nM. Also, the IC50 on p110β/p85 was 100 to 1000 nM. Further, the IC50 at p110δ/p85 was less than 100 nM. Further, the half-maximal inhibitory concentration (IC50) with NZB5 is 100 to 1000 nM. The IC50 with NZOV9 lay in the range of 100 to 1000 nM.

For the compound `Cc1ccccc1-n1c(Cn2cnc3c(N)ncnc32)nc2cccc(C)c2c1=O` [IC87114], the PI3K isoform selectivity result with PI3K was “δ-selective”.

Consider `O=c1cc(N2CCOCC2)oc2c(-c3ccccc3)cccc12` [LY294002], for which the tolerability result in the series with human tumor xenografts is reported as “well-tolerated”.

With `Oc1cccc(-c2nc(N3CCOCC3)c3oc4ncccc4c3n2)c1` [PI103], the PI3K isoform selectivity result in the series on PI3K is “slightly α-selective”.

Take `Cc1cc(C(C)Nc2ccccc2)c2nc(N3CCOCC3)cc(=O)n2c1` (centres unmarked) [TGX221]: in the series with PI3K, the PI3K isoform selectivity entry is “β-selective”.

`FC(F)c1nc2ccccc2n1-c1nc(N2CCOCC2)nc(N2CCOCC2)n1` [ZSTK474]: the PI3K isoform selectivity result in the series on PI3K is on record as “non-selective”.
